# Data from ChEMBL document CHEMBL2169787, “The biology and chemistry of antifungal agents: a review” (2012).
# How the values were obtained:
# Type in all cases: functional
# Aspergillus niger [1] = assay: Antifungal activity against Aspergillus niger assessed as growth inhibition; further: test concentration or dose not given here
# Aspergillus fumigatus [2] = assay: Antifungal activity against Aspergillus fumigatus assessed as growth inhibition
# Trichophyton rubrum = assay: Antifungal activity against Trichophyton rubrum
# Aspergillus flavus [3] = assay: Antifungal activity against Aspergillus flavus assessed as growth inhibition
# Candida = assay: Antifungal activity against Candida spp
# Aspergillus flavus [4] = assay: Antifungal activity against Aspergillus flavus; settings: for MIC: Aspergillus flavus; on IZ: test concentration or dose not given here
# Pichia kudriavzevii = assay: Antifungal activity against Candida krusei
# Candida tropicalis = assay: Antifungal activity against Candida tropicalis
# Aspergillus niger [5] = assay: Antifungal activity against Aspergillus niger; settings: for MIC: Aspergillus niger
# Candida albicans = assay: Antifungal activity against Candida albicans; settings: for MIC: Candida albicans
# Cryptococcus neoformans [6] = assay: Antifungal activity against Cryptococcus neoformans after 72 hrs by NCCLS broth microdilution method
# Staphylococcus aureus = assay: Antibacterial activity against Staphylococcus aureus
# [7] = test system: Mycobacterium tuberculosis; assay: Antibacterial activity against Mycobacterium tuberculosis
# Cryptococcus neoformans [8] = assay: Antifungal activity against Cryptococcus neoformans
# Macrophomina phaseolina = assay: Antifungal activity against Macrophomina phaseolina
# Fusarium oxysporum = assay: Antifungal activity against Fusarium oxysporum
# Trichoderma viride = assay: Antifungal activity against Trichoderma viride
# Lasiodiplodia theobromae = assay: Antifungal activity against Botryodiplodia theobromae
# Fusarium verticillioides = assay: Antifungal activity against Fusarium moniliforme
# Candida parapsilosis [9] = assay: Antifungal activity against Candida parapsilosis; settings: Lodderomyces parapsilosis
# Sporothrix schenckii = assay: Antifungal activity against Sporothrix schenckii
# Candida parapsilosis [10] = assay: Antifungal activity against Candida parapsilosis ATCC 22019; settings: Lodderomyces parapsilosis
# Microsporum = assay: Antifungal activity against Microsporum […]
# Aspergillus fumigatus [11] = assay: Antifungal activity against Aspergillus fumigatus
# [12] = test system: Trichophyton mentagrophytes; assay: Antifungal activity against Trichophyton mentagrophytes
# Microsporum canis = assay: Antifungal activity against Microsporum canis
smiles,measurement,setting,value
COC(=O)Nc1nc2ccccc2[nH]1 [CARBENDAZIM],growth inhibition (GI),Aspergillus niger [1],90%
same,growth inhibition (GI),Aspergillus fumigatus [2],92%
Clc1ccc(CN(Cc2ccc(-c3ccccc3)cc2)n2ccnc2)c(Cl)c1,MIC,Trichophyton rubrum,0.8 mg/L
N#CC(=C1CCCC1)c1nc2cc(Cl)ccc2o1,growth inhibition (GI),Aspergillus niger [1],60%
same,growth inhibition (GI),Aspergillus flavus [3],60%
CCOC(=O)C1(C)C2(C(=O)N(c3ccccc3)N=C2C)C1(c1ccccc1)c1ccccc1 (stereo unspecified),MIC,Candida,25 mg/L
Nc1nc(=O)[nH]cc1F [FLUCYTOSINE],MIC,Aspergillus flavus [4],12.5 mg/L
same,MIC,Pichia kudriavzevii,12.5 mg/L
same,MIC,Candida tropicalis,12.5 mg/L
same,MIC,Aspergillus niger [5],12.5 mg/L
same,MIC,Candida albicans,12.5 mg/L
COC(=O)C1C2(C(=O)N(c3ccccc3)N=C2C)C1(c1ccccc1)c1ccccc1 (stereo unspecified),MIC,Candida,25 mg/L
CC1=NN(c2ccccc2)C(=O)C12C(C)(C(=O)OC(C)(C)C)C2(c1ccccc1)c1ccccc1 (stereo unspecified),MIC,Candida,25 mg/L
CN(C/C=C/C#CC(C)(C)C)Cc1cccc2ccccc12 [TERBINAFINE],MIC50,Cryptococcus neoformans [6],0.25 mg/L
NC(=S)N1N=C(c2ccc(Cl)cc2)CC1c1cccnc1 (stereo unspecified),MIC,Staphylococcus aureus,128 mg/L
same,MIC,[7],6.25 mg/L
N=C1SC(c2ccc(Cl)cc2)c2cnn(C(=O)c3ccc(Cl)cc3)c2C1=N (stereo unspecified),growth inhibition (GI),Aspergillus niger [1],60%
same,growth inhibition (GI),Aspergillus fumigatus [2],61%
CCCn1cc(-c2ccc(Cl)cc2)c(C(c2ccccc2)n2ccnc2)c1 (stereo unspecified),MIC,Candida albicans,0.016 mg/L
C[C@@H]1[C@H](O)[C@@H](C)/C=C/C=C/C=C/C=C/C=C/C=C/C=C/[C@H](O[C@@H]2O[C@H](C)[C@@H](O)[C@H](N)[C@@H]2O)C[C@@H]2O[C@](O)(C[C@@H](O)C[C@@H](O)[C@H](O)CC[C@@H](O)C[C@@H](O)CC(=O)O[C@H]1C)C[C@H](O)[C@H]2C(=O)O [AMPHOTERICIN B],MIC,Cryptococcus neoformans [8],0.13 mg/L
N#Cc1c(Cl)c(Cl)c(Cl)c(C#N)c1Cl [CHLOROTHALONIL],MIC,Macrophomina phaseolina,52 mg/L
same,MIC,Fusarium oxysporum; Fusarium oxysporum,52 mg/L
same,MIC,Aspergillus niger [5],52 mg/L
O=C(Nc1ccccc1-c1nnc(-c2ccc(O)cc2)o1)c1ccccc1,inhibition zone (IZ),Aspergillus flavus [4],11 mm
same,inhibition zone (IZ),Aspergillus niger [5],15 mm
CCCCCCCCCCCCCCCc1nnc(CCCCCCC/C=C/CC(O)CCCCCC)o1 (stereo unspecified),inhibition zone (IZ),Fusarium oxysporum,15 mm
same,inhibition zone (IZ),Trichoderma viride,15 mm
same,inhibition zone (IZ),Aspergillus niger [5],15 mm
same,inhibition zone (IZ),Candida albicans,15 mm
Fc1ccc(N2OC(c3ccccc3)CC2c2ccc(-c3ccccc3)cc2)cc1 (stereo unspecified),MIC,Lasiodiplodia theobromae,2.5 mg/L
same,MIC,Aspergillus flavus [4],2.5 mg/L
same,MIC,Fusarium verticillioides,2.5 mg/L
CC1=NN(c2ccccc2)C(=O)C12C(C)(C#N)C2(c1ccccc1)c1ccccc1 (stereo unspecified),MIC,Candida,25 mg/L
COC(=O)C1(C)C2(C(=O)N(c3ccccc3)N=C2C)C1(c1ccccc1)c1ccccc1 (stereo unspecified),MIC,Candida,25 mg/L
CCCCOc1ccccc1N1CCN(CCc2nnn(C(C)C(O)(Cn3cncn3)c3ccc(F)cc3F)n2)CC1 (stereo unspecified),MIC,Candida parapsilosis [9],1 mg/L
same,MIC,Candida tropicalis,1 mg/L
same,MIC,Cryptococcus neoformans [8],1 mg/L
same,MIC,Candida albicans,1 mg/L
C[C@H](CCCN1C=NN(CC(O)(Cn2cncn2)c2ccc(F)cc2F)C1)[C@H]1CC[C@H]2[C@@H]3CC[C@@H]4CCCC[C@]4(C)[C@H]3CC[C@]12C (stereo partly specified),MIC,Sporothrix schenckii,2.18 mg/L
same,MIC,Candida albicans,2.18 mg/L
same,MIC,Candida parapsilosis [10],2.18 mg/L
NC(=O)c1ccc(COc2ccc(N3CCN(CC(O)(Cn4cncn4)c4ccccc4)CC3)cc2)cc1 (stereo unspecified),MIC,Trichophyton rubrum,0.0625 mg/L
same,MIC,Candida parapsilosis [9],0.0625 mg/L
same,MIC,Candida tropicalis,0.0625 mg/L
same,MIC,Cryptococcus neoformans [8],0.0625 mg/L
same,MIC,Microsporum,0.0625 mg/L
same,MIC,Aspergillus fumigatus [11],0.0625 mg/L
O=C(O)CCSC1=C(CO)C(=O)c2ccccc2C1=O,MIC,[12],0.78 mg/L
same,MIC,Sporothrix schenckii,0.78 mg/L
same,MIC,Cryptococcus neoformans [8],0.78 mg/L
same,MIC,Candida albicans,0.78 mg/L
same,MIC,Aspergillus fumigatus [11],0.78 mg/L
same,MIC,Microsporum canis,0.78 mg/L
CC1=NN(c2ccccc2)C(=O)C12C(C(=O)OC(C)(C)C)C2(c1ccccc1)c1ccccc1 (stereo unspecified),MIC,Candida,25 mg/L
CCN(CC)C(=O)C1(C)C2(C(=O)N(c3ccccc3)N=C2C)C1(c1ccccc1)c1ccccc1 (stereo unspecified),MIC,Candida,25 mg/L
CCN(CC)C(=O)C1C2(C(=O)N(c3ccccc3)N=C2C)C1(c1ccccc1)c1ccccc1 (stereo unspecified),MIC,Candida,25 mg/L
